Assay results reported in patent publication US20050180956A1, “SSAO enzyme substrates for vasorelaxation, and methods of use thereof” (priority 2004, published 2005).
Where two headings read alike, the source gives them in different places. Each block holds one molecule with its values, some of them ahead of it.

Assays:
[1] = tested on: human left internal mammary artery (LIMA); assay: Vascular ring physiology, isolated human left internal mammary artery rings; conditions: for response in HI K+-precontracted LIMA, % of HI K+ tension (contraction): n=9,3,6; for EC50: Homo sapiens; for % Response, contraction (C), LIMA / % Response, relaxation (R), LIMA: NE-precontracted (1 μM) LIMA, 10 min exposure to 1 mmol/L, percentage change of NE-precontraction tension; for effect of pretreatment on MA-induced relaxation: L-NAME 200 μmol/L and/or INDO 100 μmol/L
[2] = biological target: homogenized rat aortic SSAO activity (Rattus norvegicus, UniProt O08590); conditions: read-out: Km for homogenized rat aortic SSAO activity; cited from earlier work
[3] = tested on: human left internal mammary artery (LIMA)
[4] = biological target: SSAO of human cerebral microvessels (Homo sapiens, UniProt Q16853); conditions: read-out: Km, human cerebral microvessels; cited from earlier work
humans = conditions: cited from earlier work
human radial artery (RA) = assay: Vascular ring physiology, isolated human radial artery rings
[5] = biological target: SSAO of human umbilical artery (Homo sapiens, UniProt Q16853); conditions: read-out: Km, human umbilical artery; cited from earlier work
cGMP level in human LIMA = assay: cGMP ELISA assay in LIMA segments; conditions: NE-precontracted LIMA, MA 1 mmol/L, 30-40 min, control 0.128 ± 0.034
[6] = biological target: T1, SSAO activity in homogenized human RSV (Homo sapiens, UniProt Q16853); assay: Radiometric SSAO assay (14C-benzylamine), homogenized RSV; assay type: biochemical; conditions: homogenate preincubated 20 min, 37° C.; n=5
T1 sequence (Q16853 1-763): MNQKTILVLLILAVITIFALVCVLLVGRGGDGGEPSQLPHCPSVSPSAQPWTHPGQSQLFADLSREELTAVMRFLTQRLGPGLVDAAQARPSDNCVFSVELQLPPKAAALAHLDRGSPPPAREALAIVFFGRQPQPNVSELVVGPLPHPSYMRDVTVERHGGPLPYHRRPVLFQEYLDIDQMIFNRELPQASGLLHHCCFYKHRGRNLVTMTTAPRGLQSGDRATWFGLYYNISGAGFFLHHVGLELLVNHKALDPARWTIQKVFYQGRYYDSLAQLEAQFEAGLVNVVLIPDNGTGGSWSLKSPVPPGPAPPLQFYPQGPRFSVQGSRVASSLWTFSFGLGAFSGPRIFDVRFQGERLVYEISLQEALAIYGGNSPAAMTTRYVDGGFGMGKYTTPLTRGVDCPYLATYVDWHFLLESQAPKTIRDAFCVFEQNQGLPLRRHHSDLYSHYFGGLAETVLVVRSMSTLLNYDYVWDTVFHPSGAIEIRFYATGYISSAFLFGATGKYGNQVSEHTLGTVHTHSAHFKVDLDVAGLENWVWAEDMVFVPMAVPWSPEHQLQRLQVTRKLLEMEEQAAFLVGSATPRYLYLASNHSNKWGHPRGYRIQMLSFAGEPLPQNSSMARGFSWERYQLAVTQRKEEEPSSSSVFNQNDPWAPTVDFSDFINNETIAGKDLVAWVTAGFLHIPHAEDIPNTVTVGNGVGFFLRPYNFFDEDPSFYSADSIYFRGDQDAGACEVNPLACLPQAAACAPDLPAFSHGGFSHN

[7] = biological target: T2, SSAO activity in homogenized human LIMA (Homo sapiens, UniProt Q16853); assay: Radiometric SSAO assay (14C-benzylamine), homogenized LIMA; assay type: biochemical; conditions: homogenate preincubated 20 min, 37° C.; n=25
T2 construct: Blood vessel segments were homogenized in Sorensen's Na^+/K^+-phosphate buffered solution; from tissue; host or cells: human left internal mammary artery (LIMA), supernatant of homogenate
T2 sequence (Q16853 1-763): T1 sequence (Q16853 1-763)

[8] = biological target: T3, SSAO activity in homogenized human RA (Homo sapiens, UniProt Q16853); assay: Radiometric SSAO assay (14C-benzylamine), homogenized RA; assay type: biochemical; conditions: homogenate preincubated 20 min, 37° C.; n=10
T3 construct: Blood vessel segments were homogenized in Sorensen's Na^+/K^+-phosphate buffered solution; from tissue; host or cells: human radial artery (RA), supernatant of homogenate
T3 sequence (Q16853 1-763): T1 sequence (Q16853 1-763)

[9] = biological target: T4, SSAO in human saphenous vein (Homo sapiens, UniProt Q16853); conditions: read-out: IC50 of SSAO inhibition in human saphenous vein, literature; cited from earlier work
T4 sequence (Q16853 1-763): T1 sequence (Q16853 1-763)

[10] = read-out: Apparent EC50, contraction (C), LIMA
[11] = read-out: Apparent EC50, relaxation (R), LIMA
[12] = NE-precontracted LIMA, repeated methylamine exposure, n=5

Sequence of homogenized rat aortic SSAO activity (O08590 whole entry): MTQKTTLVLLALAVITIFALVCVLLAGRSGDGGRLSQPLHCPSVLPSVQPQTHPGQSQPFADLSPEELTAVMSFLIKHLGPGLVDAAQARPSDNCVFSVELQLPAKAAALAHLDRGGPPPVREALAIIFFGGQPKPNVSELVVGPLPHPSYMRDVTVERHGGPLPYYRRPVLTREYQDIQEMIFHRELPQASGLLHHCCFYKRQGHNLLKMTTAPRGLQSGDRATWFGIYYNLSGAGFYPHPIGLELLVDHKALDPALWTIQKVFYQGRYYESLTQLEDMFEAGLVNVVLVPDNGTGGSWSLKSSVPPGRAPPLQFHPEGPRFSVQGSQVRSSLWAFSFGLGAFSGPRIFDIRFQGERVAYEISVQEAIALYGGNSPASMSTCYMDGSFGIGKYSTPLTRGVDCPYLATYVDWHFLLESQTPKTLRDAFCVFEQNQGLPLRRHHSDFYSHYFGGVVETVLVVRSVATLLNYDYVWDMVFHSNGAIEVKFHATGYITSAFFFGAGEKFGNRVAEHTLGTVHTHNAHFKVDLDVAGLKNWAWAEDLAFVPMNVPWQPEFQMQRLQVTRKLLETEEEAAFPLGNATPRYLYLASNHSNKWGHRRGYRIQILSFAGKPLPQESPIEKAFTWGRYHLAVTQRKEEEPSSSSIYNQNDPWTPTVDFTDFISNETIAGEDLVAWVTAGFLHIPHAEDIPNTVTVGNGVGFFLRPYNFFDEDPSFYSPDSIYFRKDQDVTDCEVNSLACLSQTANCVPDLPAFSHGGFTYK

SMILES: C=O [Formaldehyde, formaldehyde]
response in HI K+-precontracted LIMA, % of HI K+ tension (contraction) ([1]; 1 mmol/L, 10 min, mean ± SE): 12.9±2.4%
EC50 [1, 10]: 315 µM
EC50 [1, 11]: 315 µM
% Response, contraction (C), LIMA ([1]; mean ± SE): 3.7 ± 3.7%
% Response, relaxation (R), LIMA ([1]; mean ± SE): 37.3 ± 18.6%

SMILES: C=CCN [allylamine, reference compound]
Km [2]: 145 µM

SMILES: COC(=O)[C@@H](N)CCCNC(=N)N[N+](=O)[O-] [L-NAME, N^ω-nitro-L-arginine methyl ester]
effect of pretreatment on ACh-induced relaxation ([1]; L-NAME 200 μmol/L, 20 min, subset of LIMA rings with relatively strong ACh relaxation): significantly inhibited the ACh-induced relaxation
effect of pretreatment on MA-induced relaxation ([1]; NE-precontracted LIMA, 20 min): had no effect on MA-induced relaxation

mean relaxation half time (t1/2), NE-precontracted LIMA [3]: 1.07 ± 0.122 min
SMILES: CC(=O)OCC[N+](C)(C)C [ACh, acetylcholine]
ACh-induced relaxation, ACh added after MA (post-MA ACh) ([1]; NE-precontracted LIMA, ACh 1 μmol/L, n=20, mean ± SE): 14±6%
ACh-induced relaxation, ACh added before MA (pre-MA ACh) ([1]; NE-precontracted LIMA, ACh 1 μmol/L, n=21, mean ± SE): 25±6%

SMILES: CN [methylamine]
Km [2]: 247 µM
Km [4]: 22 µM
fatalities after accidental exposure (humans; 35 persons hospitalized 7-8 hours post-exposure to spilled purified liquid methylamine): 6
persons with light to deep coma after accidental exposure (humans; of 35 people): 10 of 35
EC50 (human radial artery (RA); read-out: Apparent EC50, contraction (C), RA): 65 ± 48 µM
EC50 (human radial artery (RA); read-out: Apparent EC50, relaxation (R), RA): 280 ± 40 µM
Km [5]: 832 µM
response in HI K+-precontracted LIMA, % of HI K+ tension (contraction) ([1]; 1 mmol/L, 10 min, mean ± SE): 1.7±3.9%
EC50 [1, 11]: 230 ± 30 µM
ACh relaxation after prior exposure, percentage reduction in HI K+ contraction ([1]; LIMA n=7, ACh 1 μM after methylamine 1 mM 10 min (± SEMI 1 mM 15 min) and three PSS bath changes): 20 ± 11%
HI K+ contraction after prior exposure, percentage of control norepinephrine contraction ([1]; LIMA n=7, HI K+ 100 mM after methylamine 1 mM 10 min (± SEMI 1 mM 15 min) and three PSS bath changes): 102 ± 23%
SNP relaxation after prior exposure, percentage reduction in HI K+ contraction ([1]; LIMA n=7, SNP 100 μM after methylamine 1 mM 10 min (± SEMI 1 mM 15 min) and three PSS bath changes): 90 ± 11%
methylamine relaxation relative to ACh-induced relaxation ([1]; LIMA, on average, regardless of order of addition): > 2 times
% Response, contraction (C), LIMA ([1]; mean ± SE): 0.6 ± 0.3%
% Response, relaxation (R), LIMA ([1]; mean ± SE): 55.4 ± 3.9%
% relaxation, 3rd relaxation ([1]; NE-precontracted LIMA, repeated methylamine exposure, n=1): 82.1%
% relaxation, 1st relaxation [1, 12]: 72.0±7.5%
% relaxation, 2nd relaxation [1, 12]: 60.8±12.6%
% reduction of NE-contraction, methylamine post-NE ([1]; NE-precontracted LIMA, 1 mmol/L, 10 min, n=9, mean ± SE): 61±5%
% Relaxation, LIMA, <50% relaxation subgroup ([1]; NE-precontracted LIMA, MA 1 mmol/L, 30-40 min, vessels with <50% relaxation (n=3)): 34.1 ± 7.1%
% Relaxation, LIMA, >50% relaxation subgroup ([1]; NE-precontracted LIMA, MA 1 mmol/L, 30-40 min, vessels with >50% relaxation (n=6)): 87.8 ± 5.0%
Apparent EC50, contraction (C), LIMA ([1]; cumulative concentrations 1-1000 μM, uncontracted and NE-precontracted vessels pooled, mean ± SE): not observed
% reduction of NE-contraction, methylamine pre-NE ([1]; unstimulated LIMA exposed to 1 mmol/L, 10 min, before NE, n=5, mean ± SE): 53±7%
[cGMP], LIMA, <50% relaxation subgroup (cGMP level in human LIMA; vessels with <50% relaxation (n=3)): 0.067 ± 0.029 pmol/mg
[cGMP], LIMA, >50% relaxation subgroup (cGMP level in human LIMA; vessels with >50% relaxation (n=6)): 0.227 ± 0.066 pmol/mg
[cGMP], RSV (cGMP level in human RSV): 0.109 ± 0.030 pmol/mg

SMILES: NNC(N)=O [semicarbazide]
IC50 [6]: 14.7 µM
IC50 [7]: 16.7 ± 19.5 µM
mean % reversal of methylamine-induced relaxation ([1]; NE-precontracted LIMA, within 10 min of addition of 1 mmol/L semicarbazide, n=2): 63.0±15.8%
effect of pretreatment on methylamine-induced relaxation in LIMA ([1]; semicarbazide pretreatment 1 mmol/L, 15 min, no effect on NE contraction or ACh relaxation): significantly reduced the methylamine-induced relaxation
IC50 [8]: 21.2 ± 11.2 µM
IC50 [9]: 500 µM

EC50 [1, 10]: 175 ± 58 µM
EC50 [1, 11]: 162 ± 41 µM
SMILES: OO [H2O2, hydrogen peroxide]
response in HI K+-precontracted LIMA, % of HI K+ tension (contraction) ([1]; 1 mmol/L, 10 min, mean ± SE): 21.1±7.7%
% Response, contraction (C), LIMA ([1]; mean ± SE): 15.8 ± 5.3%
% Response, relaxation (R), LIMA ([1]; mean ± SE): 55.6 ± 9.0%

SMILES: COc1ccc2c(c1)c(CC(=O)O)c(C)n2C(=O)c1ccc(Cl)cc1 [INDO, indomethacin]
effect of pretreatment on MA-induced relaxation ([1]; NE-precontracted LIMA, 20 min): neither INDO alone (100 μmol/L; 20 min) nor L-NAME+INDO pretreatment affected the MA-induced relaxation
